Data published in patent US12139520B2 (priority 2020, dated 2024).
Bridge positions count the residues as written; N and C are the ends. Square brackets hold non-standard residues; d marks the D form. Peptide text beside a SMILES is read from it. Hyp = O=C(O)[C@@H]1C[C@@H](O)CN1; Cit = NC(=O)NCCC[C@H](N)C(=O)O

Columns and labels:
hAMY3 receptor = target: T1, hAMY3 receptor (Homo sapiens, UniProt O60896+P30988); assay: cAMP assay for in vitro receptor activation, hAMY3-R; assay type: cell-based; details: cAMP assay, hAMY3 receptor; read-out: hAMY3R EC50
T1 sequence (P30988 25-474): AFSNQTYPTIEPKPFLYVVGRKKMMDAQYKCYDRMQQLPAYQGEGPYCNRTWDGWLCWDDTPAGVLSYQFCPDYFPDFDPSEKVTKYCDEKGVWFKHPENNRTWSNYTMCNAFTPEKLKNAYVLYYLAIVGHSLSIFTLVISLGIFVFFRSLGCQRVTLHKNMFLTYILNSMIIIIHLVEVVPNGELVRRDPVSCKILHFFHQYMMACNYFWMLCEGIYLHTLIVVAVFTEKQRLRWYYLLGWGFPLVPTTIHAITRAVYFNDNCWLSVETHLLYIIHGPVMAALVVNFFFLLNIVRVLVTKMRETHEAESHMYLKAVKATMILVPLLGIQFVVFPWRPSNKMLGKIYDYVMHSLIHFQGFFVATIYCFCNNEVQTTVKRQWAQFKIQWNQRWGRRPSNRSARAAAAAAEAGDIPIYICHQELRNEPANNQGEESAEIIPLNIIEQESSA
T1 sequence (O60896 24-148 partner): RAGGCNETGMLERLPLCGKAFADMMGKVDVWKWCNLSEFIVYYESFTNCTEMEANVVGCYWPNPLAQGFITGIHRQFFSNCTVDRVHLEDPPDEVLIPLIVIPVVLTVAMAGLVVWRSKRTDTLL
Outline: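 Graded compound concentrations were applied for 30 min at room temperature to stably hAMY3-expressing cells in DPBS, 0.05% casein, 0.5 mM IBMX; cAMP detected by TR-FRET.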

hAM1 receptor = hAM1 receptor (Homo sapiens, UniProt O60895+Q16602); assay: cAMP assay for in vitro receptor activation, hAM1-R; assay type: cell-based; details: cAMP assay, hAM1 receptor; read-out: hAM1R EC50
Outline: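 Monoclonal stable hAM1-overexpressing cells, thawed from frozen stock; 8000 cells/well in DPBS + 0.05% casein + 0.5 mM IBMX; read-out cAMP.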

[1] = Physical stability of peptide analogues (Thioflavin T fibrillation); assay type: physicochemical; details: maximum ThT signal normalized between hAMY maximum and buffer background; 40° C., shaking, four days; pH 7 per table title
Outline: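 ThT fluorescence (450 nm excitation, 480 nm emission; 4 μM dye) was read every 10 min over four days at 40° C under 700 rpm shaking stress, after 1 h in pH 4 acetate or pH 7 phosphate (50 mM). Peak smoothed signal expressed as percent, scaled between buffer background and hAMY maximum.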

Chain of hAM1 receptor (Q16602 23-461): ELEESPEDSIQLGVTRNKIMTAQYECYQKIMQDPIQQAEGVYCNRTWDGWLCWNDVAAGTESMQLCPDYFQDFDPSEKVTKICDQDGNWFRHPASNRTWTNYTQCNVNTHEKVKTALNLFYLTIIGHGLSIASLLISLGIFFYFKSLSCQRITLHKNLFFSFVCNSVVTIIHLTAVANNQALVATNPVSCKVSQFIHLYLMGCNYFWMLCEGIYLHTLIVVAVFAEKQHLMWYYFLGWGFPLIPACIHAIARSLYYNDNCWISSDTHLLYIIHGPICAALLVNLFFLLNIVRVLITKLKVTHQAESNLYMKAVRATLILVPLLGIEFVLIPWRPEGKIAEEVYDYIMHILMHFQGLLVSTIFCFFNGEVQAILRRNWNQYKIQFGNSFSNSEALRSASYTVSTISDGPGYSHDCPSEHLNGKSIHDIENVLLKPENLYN
Chain of hAM1 receptor (O60895 43-175 partner): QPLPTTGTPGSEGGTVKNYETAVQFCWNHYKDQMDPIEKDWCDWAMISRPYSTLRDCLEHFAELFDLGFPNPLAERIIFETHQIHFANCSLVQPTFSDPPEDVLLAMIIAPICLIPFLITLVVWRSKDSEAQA

| EC50 (hAMY3 receptor) [nM] | EC50 (hAM1 receptor) [nM] | Max ThT signal (%) [1] [%] | Compound |
| --- | --- | --- | --- |
| 0.012 | > 5000 | 2.700 | CC[C@H](C)[C@H](NC(=O)[C@H](CCC(N)=O)NC(=O)[C@H](Cc1c[nH]cn1)NC(=O)[C@H](C)NC(=O)[C@H](CC(C)C)NC(=O)[C@H](CCCNC(=N)N)NC(=O)[C@H](CCC(N)=O)NC(=O)[C@@H](NC(=O)[C@@H](NC(=O)[C@@H]1CSSC[C@H](NC(=O)[C@@H](N)CCCCN)C(=O)N[C@@H](CC(N)=O)C(=O)N[C@@H]([C@@H](C)O)C(=O)N[C@@H](C)C(=O)N[C@@H]([C@@H](C)O)C(=O)N1)[C@@H](C)O)C(C)C)C(=O)N[C@@H](Cc1ccc(O)cc1)C(=O)N[C@@H](CCC(N)=O)C(=O)N[C@@H](Cc1ccccc1)C(=O)N[C@H](C(=O)N[C@@H](CC(=O)O)C(=O)N[C@@H](C)C(=O)N[C@@H](CC(=O)O)C(=O)N[C@@H](CCCCN)C(=O)N[C@@H](CC(=O)O)C(=O)N[C@@H](CC(N)=O)C(=O)N[C@H](C(=O)N[C@@H](C)C(=O)N1CCC[C@H]1C(=O)N1CCC[C@H]1C(=O)N[C@H](C(=O)N[C@@H](CC(N)=O)C(=O)N[C@H](C(=O)NCC(=O)N[C@@H](CO)C(=O)N[C@@H](CC(N)=O)C(=O)NCC(=O)N1C[C@H](O)C[C@H]1C(N)=O)C(C)C)[C@@H](C)O)C(C)C)[C@@H](C)O [compound 64] (H-KCNTATCTVQRLAHQIYQFTDADKDNVAPPTNVGSNG[Hyp]-NH2; disulfide 2-7) |
| 0.008 | > 5000 | 21.80 | CC[C@H](C)[C@H](NC(=O)[C@H](CCC(N)=O)NC(=O)[C@H](Cc1c[nH]cn1)NC(=O)[C@H](C)NC(=O)[C@H](CC(C)C)NC(=O)[C@H](CCCNC(=N)N)NC(=O)[C@H](CCC(N)=O)NC(=O)[C@@H](NC(=O)[C@@H](NC(=O)[C@@H]1CSSC[C@H](NC(=O)[C@@H](N)CCCCN)C(=O)N[C@@H](CC(N)=O)C(=O)N[C@@H]([C@@H](C)O)C(=O)N[C@@H](C)C(=O)N[C@@H]([C@@H](C)O)C(=O)N1)[C@@H](C)O)C(C)C)C(=O)N[C@@H](Cc1ccc(O)cc1)C(=O)N[C@@H](CCC(N)=O)C(=O)N[C@@H](Cc1ccccc1)C(=O)N[C@H](C(=O)N[C@@H](CC(=O)O)C(=O)N[C@@H](CCCCN)C(=O)N[C@@H](CC(=O)O)C(=O)N[C@@H](CCCCN)C(=O)N[C@@H](CC(=O)O)C(=O)N[C@@H](CC(N)=O)C(=O)N[C@@H](C)C(=O)N[C@@H](C)C(=O)N1CCC[C@H]1C(=O)N1CCC[C@H]1C(=O)N[C@H](C(=O)N[C@@H](CC(N)=O)C(=O)N[C@H](C(=O)NCC(=O)N[C@@H](CO)C(=O)N[C@@H](CC(N)=O)C(=O)NCC(=O)N1C[C@H](O)C[C@H]1C(N)=O)C(C)C)[C@@H](C)O)[C@@H](C)O [compound 27] (H-KCNTATCTVQRLAHQIYQFTDKDKDNAAPPTNVGSNG[Hyp]-NH2; disulfide 2-7; N-terminus assumed) |

The next lines start with the molecule.

| Compound | EC50 (hAMY3 receptor) [nM] | EC50 (hAM1 receptor) [nM] | Max ThT signal (%) [1] [%] |
| --- | --- | --- | --- |
| CC[C@H](C)[C@H](NC(=O)[C@H](CCC(N)=O)NC(=O)[C@H](Cc1c[nH]cn1)NC(=O)[C@H](C)NC(=O)[C@H](CC(C)C)NC(=O)[C@H](CCCNC(N)=O)NC(=O)[C@H](CCC(N)=O)NC(=O)[C@@H](NC(=O)[C@@H](NC(=O)[C@@H]1CSSC[C@H](NC(=O)[C@@H](N)CCCCN)C(=O)N[C@@H](CC(N)=O)C(=O)N[C@@H]([C@@H](C)O)C(=O)N[C@@H](C)C(=O)N[C@@H]([C@@H](C)O)C(=O)N1)[C@@H](C)O)C(C)C)C(=O)N[C@@H](Cc1ccc(O)cc1)C(=O)N[C@@H](CCC(N)=O)C(=O)N[C@@H](Cc1ccccc1)C(=O)N[C@H](C(=O)N[C@@H](CC(=O)O)C(=O)N[C@@H](CCCCN)C(=O)N[C@@H](CC(=O)O)C(=O)N[C@@H](CCCCN)C(=O)N[C@@H](CC(=O)O)C(=O)N[C@@H](CC(N)=O)C(=O)N[C@H](C(=O)N[C@@H](C)C(=O)N1CCC[C@H]1C(=O)N1CCC[C@H]1C(=O)N[C@H](C(=O)N[C@@H](CC(N)=O)C(=O)N[C@H](C(=O)NCC(=O)N[C@@H](CO)C(=O)N[C@@H](CC(N)=O)C(=O)NCC(=O)N1C[C@H](O)C[C@H]1C(N)=O)C(C)C)[C@@H](C)O)C(C)C)[C@@H](C)O [compound 268] (H-KCNTATCTVQ[Cit]LAHQIYQFTDKDKDNVAPPTNVGSNG[Hyp]-NH2; disulfide 2-7; N-terminus assumed) | 0.014 | > 5000 | 8.850 |
| CC[C@H](C)[C@H](NC(=O)[C@H](CCC(N)=O)NC(=O)[C@H](Cc1c[nH]cn1)NC(=O)[C@H](C)NC(=O)[C@H](CC(C)C)NC(=O)[C@H](Cc1c[nH]c2ccccc12)NC(=O)[C@H](CCC(N)=O)NC(=O)[C@@H](NC(=O)[C@@H](NC(=O)[C@@H]1CSSC[C@H](NC(=O)[C@@H](N)CCCCN)C(=O)N[C@@H](CC(N)=O)C(=O)N[C@@H]([C@@H](C)O)C(=O)N[C@@H](C)C(=O)N[C@@H]([C@@H](C)O)C(=O)N1)[C@@H](C)O)C(C)C)C(=O)N[C@@H](Cc1ccc(O)cc1)C(=O)N[C@@H](CCC(N)=O)C(=O)N[C@@H](Cc1ccccc1)C(=O)N[C@H](C(=O)N[C@@H](CC(=O)O)C(=O)N[C@@H](CCCCN)C(=O)N[C@@H](CC(=O)O)C(=O)N[C@@H](CCCCN)C(=O)N[C@@H](CC(=O)O)C(=O)N[C@@H](CC(N)=O)C(=O)N[C@H](C(=O)N[C@@H](C)C(=O)N1CCC[C@H]1C(=O)N[C@@H](CCCNC(=N)N)C(=O)N[C@H](C(=O)N[C@@H](CCC(=O)O)C(=O)N[C@H](C(=O)NCC(=O)N[C@@H](CO)C(=O)N[C@@H](CC(N)=O)C(=O)NCC(=O)N[C@@H](Cc1ccc(O)cc1)C(N)=O)C(C)C)[C@@H](C)O)C(C)C)[C@@H](C)O [compound 334] (H-KCNTATCTVQWLAHQIYQFTDKDKDNVAPRTEVGSNGY-NH2; disulfide 2-7) | 0.013 | > 5000 | 10.150 |
| CC[C@H](C)[C@H](NC(=O)[C@H](CCC(N)=O)NC(=O)[C@H](Cc1c[nH]cn1)NC(=O)[C@H](C)NC(=O)[C@H](CC(C)C)NC(=O)[C@H](CCCNC(=N)N)NC(=O)[C@H](CCC(N)=O)NC(=O)[C@@H](NC(=O)[C@@H](NC(=O)[C@@H]1CSSC[C@H](NC(=O)[C@@H](N)CCCCN)C(=O)N[C@@H](CC(N)=O)C(=O)N[C@@H]([C@@H](C)O)C(=O)N[C@@H](C)C(=O)N[C@@H]([C@@H](C)O)C(=O)N1)[C@@H](C)O)C(C)C)C(=O)N[C@@H](Cc1ccc(O)cc1)C(=O)N[C@@H](CCC(N)=O)C(=O)N[C@@H](Cc1ccccc1)C(=O)N[C@@H](CC(=O)O)C(=O)N[C@@H](CCCCN)C(=O)N[C@@H](CC(=O)O)C(=O)N[C@@H](CCCCN)C(=O)N[C@@H](CC(=O)O)C(=O)N[C@@H](CC(N)=O)C(=O)N[C@H](C(=O)N[C@@H](C)C(=O)N1CCC[C@H]1C(=O)N1CCC[C@H]1C(=O)N[C@H](C(=O)N[C@@H](CC(N)=O)C(=O)N[C@H](C(=O)NCC(=O)N[C@@H](CO)C(=O)N[C@@H](CC(N)=O)C(=O)NCC(=O)N1C[C@H](O)C[C@H]1C(N)=O)C(C)C)[C@@H](C)O)C(C)C [compound 65] (H-KCNTATCTVQRLAHQIYQFDKDKDNVAPPTNVGSNG[Hyp]-NH2; disulfide 2-7; N-terminus assumed) | 0.012 | > 5000 | 1.000 |
| CC[C@H](C)[C@H](NC(=O)[C@H](CCC(N)=O)NC(=O)[C@H](Cc1c[nH]cn1)NC(=O)[C@H](C)NC(=O)[C@H](CC(C)C)NC(=O)[C@H](CCCNC(=N)N)NC(=O)[C@H](CCC(N)=O)NC(=O)[C@@H](NC(=O)[C@@H](NC(=O)[C@@H]1CSSC[C@H](NC(=O)[C@@H](N)CCCCN)C(=O)N[C@@H](CC(N)=O)C(=O)N[C@@H]([C@@H](C)O)C(=O)N[C@@H](C)C(=O)N[C@@H]([C@@H](C)O)C(=O)N1)[C@@H](C)O)C(C)C)C(=O)N[C@@H](C)C(=O)N[C@@H](CCC(N)=O)C(=O)N[C@@H](Cc1ccccc1)C(=O)N[C@H](C(=O)N[C@@H](CC(=O)O)C(=O)N[C@@H](CCCCN)C(=O)N[C@@H](CC(=O)O)C(=O)N[C@@H](CCCCN)C(=O)N[C@@H](CC(=O)O)C(=O)N[C@@H](CC(N)=O)C(=O)N[C@H](C(=O)N[C@@H](C)C(=O)N1CCC[C@H]1C(=O)N1CCC[C@H]1C(=O)N[C@H](C(=O)N[C@@H](CC(N)=O)C(=O)N[C@H](C(=O)NCC(=O)N[C@@H](CO)C(=O)N[C@@H](CC(N)=O)C(=O)NCC(=O)N1C[C@H](O)C[C@H]1C(N)=O)C(C)C)[C@@H](C)O)C(C)C)[C@@H](C)O [compound 14] (H-KCNTATCTVQRLAHQIAQFTDKDKDNVAPPTNVGSNG[Hyp]-NH2; disulfide 2-7; N-terminus assumed) | 0.007 | > 5000 | 3.100 |
